Measurements: US11944605B2, “Rapamycin analogs and uses thereof” (Janssen Pharmaceutica NV, priority 2018, dated 2024)
Converted amounts (≈) assume the structure as drawn.

Assays:
[1] = test system: mTORC1 pathway in tuberous sclerosis 2 (TSC2) positive (TSC+/+) MEF cells; assay: Western blot, mTORC1 pathway in TSC+/+ MEF cells; assay type: cell-based, mouse; conditions: 24 hours
Experimental: (§1) The methods employed were substantially similar to those described above. Compounds were evaluated in PC3 cells, Jurkat cells, wild-type mouse embryotic fibroblast (MEF) cells, tuberous sclerosis 2 (TSC2) negative (TSC −/−) MEF cells, and tuberous sclerosis 2 (TSC2) positive (TSC +/+) MEF cells. Cells were incubated with compounds of the present invention for various time periods (e.g., 5 minutes, 15 minutes, 30 minutes, 90 minutes, 24 hours, or 48 hours), and evaluated according to known methodologies, such as those herein described.

[2] = test system: mTORC2 (Akt phosphorylation) in TSC+/+ MEF cells; assay: Western blot, mTORC2 pathway (pAkt) in TSC+/+ MEF cells; assay type: cell-based, mouse; conditions: 24 hours
Experimental: as §1

[3] = Solubility in 100 mM phosphate buffer (pH 7.4); assay type: physicochemical; conditions: pH 7.4, aqueous buffer
Text: The compound numbers correspond to the compound numbers in Table 1.

[4] = test system: mTORC1 over mTORC2; assay: mTORC1 selectivity over mTORC2 at 24 hrs (Western blot based pS6K1 and pAKT assay); assay type: cell-based; conditions: 24 hrs
[5] = test system: pS6K1 (p-p70 S6 Kinase (Thr389)) in MCF-7 cells; assay: AlphaLISA Ultra pS6K1 Assay; assay type: cell-based; conditions: Homo sapiens, 1.5 h; MCF7 cells, 90 min
Method in brief: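 AlphaLISA Ultra read-out (acceptor beads 2 h, then donor beads 2 h) on thawed lysates of MCF-7 cells. Cells had 20–24 h after seeding and a 2 h medium change, then 90 min of compound exposure at 0.5% final DMSO, with lysates stored at −80 °C.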

[6] = test system: pAKT (p-Akt 1/2/3 (Ser473)) in MCF-7 cells; assay: AlphaLISA Ultra pAKT Assay; assay type: cell-based; conditions: Homo sapiens, 1.5 h; MCF7 cells, 90 min
Experimental: AlphaLISA Ultra pAKT Assay
1. MCF-7 cells in Corning 3701 plate and incubate for 20˜24 hour.
16,000˜20,000 cells will be seeded in 36 μL medium per well.
2. Change the culture medium with fresh medium and incubate for another 90 minutes.
3. […]
4. Aspirate […] by HAMILTON, 10 μL rest per well.
5. Add 10 μL 2× lysis buffer using HAMILTON; total volume in wells is 20 μL. Allow cells to shake for 30 min. Cover plate by plastic foil and store plate at −80° C. up to analysis.
6. Thaw cell lysate at RT and transfer 10 ul lysate to assay plate (Optiplate-384).
7. Add 5 μL acceptor beads into assay plate and incubation for 2 hours
8. Add 5 μL donor beads and incubation for 2 hours
9. Count the plate by EnSpire Multimode Plate Reader

[7] = test system: mTORC2 pathway (Akt phosphorylation) in PC3 cells; assay: Western blot, mTORC2 pathway (pAkt) in PC3 cells; assay type: cell-based; conditions: 24 hours
Experimental: Western Blot Based pS6K1 and pAKT Assay at 24 and 48 Hour Timepoints
1. Seed six well plate with 500,000 PC3 cells per well and incubate for 20˜24 hour.
2. Add compounds into the cell plate. Incubate for 24 to 48 hours.
4. Plate is placed on ice and the media is removed via aspiration. The wells are washed with 1 mL of 1× PBS and then fully aspirated.
5. 110 μL of 1% Triton Lysis Buffer is added and each well is scraped vigorously.
6. Cell homogenates are transferred to 1.5 mL eppendorf tubes on ice and spun down at 4° C. for 10 minutes at 10,000 rpm.
9. The membranes were washed 3× with TBS-T with a 5 minute incubation between each wash then incubated with secondary antibody (LiCor IRDye 800 Donkey Anti Rabbit) for at least 30 minutes.
10. The membranes were washed 3× with TBS-T with a 5 minute incubation between each wash.
11. The gels were then incubated for 5 minutes with PBS at room temperature then imaged using a Li-Cor.
as §1

| solubility [3] [µM] | IC50 [5] [nM] | IC50 [6] [nM] | SMILES | inhibition of the mTORC1 pathway [1] | inhibition of mTORC2 (Akt phosphorylation) [2] | mTORC1 selective @ 24 hrs [4] | inhibition of mTORC2 (Akt phosphorylation) [7] |
| --- | --- | --- | --- | --- | --- | --- | --- |
| 30 to 60 (≈ 29.6 to 59.3 µg/mL) | 0.1 to 1 | ≥ 100 | CO[C@@H]1C[C@H](C[C@@H](C)[C@@H]2CC(=O)[C@H](C)/C=C(\C)[C@@H](O)[C@@H](OC)C(=O)[C@H](C)C[C@H](C)/C=C/C=C/C=C(\C)[C@@H](OCCOCCO)C[C@@H]3CC[C@@H](C)[C@@](O)(O3)C(=O)C(=O)N3CCCC[C@H]3C(=O)O2)CC[C@H]1O [I-20] | moderate concentration dependent inhibition | do not inhibit | YES |  |
|  | 1 to 10 |  | CO[C@@H]1C[C@H](C[C@@H](C)[C@@H]2CC(=O)[C@H](C)/C=C(\C)[C@@H](O)[C@@H](OC)C(=O)[C@H](C)C[C@H](C)/C=C/C=C/C=C(\C)C(OCCOCCOCCOCCOCCOCCOCCOCCOCCO)C[C@@H]3CC[C@@H](C)[C@@](O)(O3)C(=O)C(=O)N3CCCC[C@H]3C(=O)O2)CC[C@H]1O (stereo partly drawn) [I-97, (21E,23E,25E,26E,46R,47S,48R,49R,51S,53S,56S,57R,58R,67R)-57, 67-dihydroxy-55-[2-[2-[2-[2-[2-[2-[2-[2-(2-hydroxyethoxy)ethoxy]ethoxy]ethoxy]ethoxy]ethoxy]ethoxy]ethoxy]ethoxy]-56-[(1R)-2-[(1S,3R,4R)-4-hydroxy-3-methoxy-cyclohexyl]-1-methyl-ethyl]-58-methoxy-46, 47,48,49,59,60-hexamethyl-78,79-dioxa-68-azatricyclohexatriaconta-21, 23,25(59),26(60)-tetraene-61,62,63,64,65-pentone] | modest concentration dependent inhibition | do not inhibit | YES | do not inhibit |
|  | 0.1 to 1 |  | CO[C@@H]1C[C@H](C[C@@H](C)[C@@H]2CC(=O)[C@H](C)/C=C(\C)[C@@H](O)[C@@H](OC)C(=O)[C@H](C)C[C@H](C)/C=C/C=C/C=C(\C)[C@@H](OCCOCCOCCO)C[C@@H]3CC[C@@H](C)[C@@](O)(O3)C(=O)C(=O)N3CCCC[C@H]3C(=O)O2)CC[C@H]1OCCO [I-110, (21E,23E,25E,26E,36R,37S,38R,39R,41S,43S,45S,46S,47R,48R,57R)-47, 57-dihydroxy-45-[2-[2-(2-hydroxyethoxy)ethoxy]ethoxy]-46-[(1R)-2-[(1S,3R, 4R)-4-(2-hydroxyethoxy)-3-methoxy-cyclohexyl]-1-methyl-ethyl]-48-methoxy-36,37,38,39,49,50-hexamethyl-68, 69-dioxa-58-azatricyclohexatriaconta-21,23,25(49),26(50)-tetraene-51, 52,53,54,55-pentone] | moderate concentration dependent inhibition | do not inhibit | YES |  |
